Structures can show the parent of a compound that is named as a salt. Where two headings read alike, the source gives them in different places.

Experimental findings from publication PMC7897990, “TriTOX: A novel Trichomonas vaginalis assay platform for high-throughput screening of compound libraries” (International Journal for Parasitology: Drugs and Drug …, 2021) are described below.

Data set [1] has as its system Trichomonas vaginalis G3 trophozoites. Nature of the data set: microbe, parasite or virus in culture. The note with it: 48 h.
Data set [2] shares this test system.
The subject of data set [3] is nontumorigenic neonatal foreskin fibroblast (NFF) cell line.
Setting [4] is: read-out: T.vaginalis_%inb_Rep1.
Setting [5] is: read-out: T.vaginalis_%inb_Rep2.
The mark [6] stands for this setting: parasite screen at 1 µg/mL, replicate 1.
Where [7] appears, read: parasite screen at 1 µg/mL, replicate 2.
[8] abbreviates: NFF_NS1 screen at 5 µg/mL, NFF cells.

Turning to `CO[C@H]1C[C@H](O[C@H]2[C@H](C)[C@@H](O[C@@H]3O[C@H](C)C[C@H](N(C)C)[C@H]3O)[C@@H](C)C[C@@]3(CO3)C(=O)[C@H](C)[C@@H](O)[C@@H](C)[C@@H](C)OC(=O)[C@@H]2C)O[C@@H](C)[C@@H]1O` [Oleandomycin], the inhibition of growth at 1 µg/mL in data set [1] (setting [4]) worked out at 13.2%; in data set [1] (setting [5]) it was 4.75%.

For `COC(=O)[C@@H]1c2cc3c(c(O)c2[C@@H](O[C@@H]2O[C@@H](C)[C@H](OC)[C@@](C)(OC)[C@H]2OC)C[C@]1(C)O)C(=O)c1c(O)cc2c(c1C3=O)O[C@@H]1O[C@@]2(C)[C@H](O)[C@@H](N(C)C)[C@@H]1O` [Nogalamycin], the inhibition of growth at 1 µg/mL came out at 12.8% in data set [1] (setting [4]) and 13.3% in data set [1] (setting [5]).

With `CO[C@@H]1[C@@H](OC(N)=O)[C@@H](O)[C@H](Oc2ccc3c(O)c(NC(=O)c4ccc(O)c(CC=C(C)C)c4)c(=O)oc3c2C)OC1(C)C` [Novobiocin], the inhibition of growth at 1 µg/mL in data set [1] (setting [4]) came to 4.51%; in data set [1] (setting [5]), 4.68%.

As to `CO[C@@H]1C[C@@H](C[C@H]2CC[C@H](C)[C@H]([C@@H](C)C(=O)O)O2)O[C@]2(O[C@](C)([C@H]3CC[C@@](C)([C@@H]4O[C@@H]([C@H]5O[C@@](O)(CO)[C@H](C)C[C@@H]5C)C[C@@H]4C)O3)C[C@H]2C)[C@@H]1C` [Nigericin], the results for the inhibition of growth at 1 µg/mL in data set [1] (setting [4]) and in data set [1] (setting [5]) were 6.59% and 6.22%, respectively.

Regarding `Oc1cc(O)cc(O)c1` [Phloroglucinol], the inhibition of growth at 1 µg/mL in data set [1] (setting [4]) stood at 13.9%; in data set [1] (setting [5]) it was 12.3%.

Turning to `COc1c(C)c2c(c(O)c1C/C=C(\C)CCC(=O)O)C(=O)OC2` [Mycophenolic acid], the figures for the inhibition of growth at 1 µg/mL in data set [1] (setting [4]) and in data set [1] (setting [5]) were 12.2% and 14.1%, respectively.

In the case of `C=CC(C)(C)[C@@]12C[C@H]3C(=O)N[C@H](CC(C)C)C(=O)N3[C@H]1N(C(C)=O)c1ccccc12` [Verrucofortine], the inhibition of growth at 1 µg/mL in data set [1] (setting [4]) amounted to 7.92%; in data set [1] (setting [5]), 9.69%.

On to `CC[C@H](C)C(=O)O[C@H]1C[C@H](O)C=C2C=C[C@H](C)[C@H](CC[C@@H](O)C[C@@H](O)CC(=O)O)[C@H]21` [Pravastatin sodium], for which the inhibition of growth at 1 µg/mL in data set [1] (setting [4]) is 13%; in data set [1] (setting [5]), 13.6%.

Regarding `CN(C)c1ccc(O)c2c1C[C@H]1C[C@H]3[C@H](N(C)C)C(O)=C(C(N)=O)C(=O)[C@@]3(O)C(O)=C1C2=O` [Minocycline HCl], the figures for the inhibition of growth at 1 µg/mL in data set [1] (setting [4]) and in data set [1] (setting [5]) were 4.51% and 0.77%, respectively.

With `CN(C)[C@@H]1C(O)=C(C(N)=O)C(=O)[C@@]2(O)C(O)=C3C(=O)c4c(O)cccc4[C@@](C)(O)[C@H]3[C@H](O)[C@@H]12` [Oxytetracycline], the inhibition of growth at 1 µg/mL in data set [1] (setting [4]) was 13.3%; in data set [1] (setting [5]), 10.7%.

Regarding `CC[C@H]1OC(=O)C[C@@H](O)[C@H](C)[C@@H](O[C@@H]2O[C@H](C)[C@@H](O[C@H]3C[C@@](C)(O)[C@@H](O)[C@H](C)O3)[C@H](N(C)C)[C@H]2O)[C@@H](CC=O)C[C@@H](C)C(=O)/C=C/C(C)=C/[C@@H]1CO[C@@H]1O[C@H](C)[C@@H](O)[C@@H](OC)[C@H]1OC` [Tylosin], the values for the inhibition of growth at 1 µg/mL in data set [1] (setting [4]) and in data set [1] (setting [5]) were 9.02% and 5.48%, respectively.

With `O=C(O)/C=C/c1c[nH]cn1` [Urocanic acid], the figures for the inhibition of growth at 1 µg/mL in data set [1] (setting [4]) and in data set [1] (setting [5]) were 8.39% and 13.2%, respectively.

Take `CC[C@@H]1/C=C(\C)C[C@H](C)C[C@H](OC)[C@H]2O[C@@](O)(C(=O)C(=O)N3CCCC[C@H]3C(=O)O[C@H](/C(C)=C/[C@@H]3CC[C@H](Cl)[C@H](OC)C3)[C@H](C)[C@@H](O)CC1=O)[C@H](C)C[C@@H]2OC` [Pimecrolimus]: the values for the inhibition of growth at 1 µg/mL in data set [1] (setting [4]) and in data set [1] (setting [5]) were 13% and 14%, respectively.

Consider `Cc1cc(O)cc(O)c1C(=O)O` [Orsellinic acid], for which the figures for the inhibition of growth at 1 µg/mL in data set [1] (setting [4]) and in data set [1] (setting [5]) were 12.5% and 14.9%, respectively.

For the compound `CC[C@@]1([C@@H]2O[C@@H]([C@H]3O[C@@](O)(CO)[C@H](C)C[C@@H]3C)C[C@@H]2C)CC[C@H]([C@]2(C)CC[C@]3(C[C@H](O)[C@@H](C)[C@@H]([C@@H](C)[C@@H](OC)[C@H](C)C(=O)O)O3)O2)O1` [Monensin A], the inhibition of growth at 1 µg/mL was found to be 12.4% in data set [1] (setting [4]) and 16.1% in data set [1] (setting [5]).

Turning to `CC1=C\[C@@H](O)CC(=O)Cc2nc(co2)C(=O)N2CCC=C2C(=O)O[C@H](C(C)C)[C@H](C)/C=C/C(=O)NC\C=C\1` [Ostreogrycin A], the inhibition of growth at 1 µg/mL came to 13.9% in data set [1] (setting [4]) and 14.5% in data set [1] (setting [5]).

For `CC[C@H]1OC(=O)C[C@@H](O)[C@H](C)[C@@H](O[C@@H]2O[C@H](C)[C@@H](O)[C@H](N(C)C)[C@H]2O)[C@@H](CCN2CCCCC2)C[C@@H](C)C(=O)/C=C/C(C)=C/[C@@H]1CN1CCCCC1` [Tildipirosin], the inhibition of growth at 1 µg/mL stood at 7.13% in data set [1] (setting [4]) and 12.7% in data set [1] (setting [5]).

`CC(=O)c1c(O)c(C)c(O)c2c1OC1=CC(=O)C(C(C)=O)C(=O)C12C` (centres unmarked) [Usnic acid]: the inhibition of growth at 1 µg/mL in data set [1] (setting [4]) was found to be 8.76%; in data set [1] (setting [5]), 13.7%.

For `O=C1NC(c2c[nH]c3ccc(O)cc23)=C/C1=C1\C(=O)Nc2ccccc21` [Violacein], the figures for the inhibition of growth at 1 µg/mL in data set [1] (setting [4]) and in data set [1] (setting [5]) were 11.2% and 11.8%, respectively.

In the case of `C[C@@H]1C/C=C/C=C/C=C/C=C/[C@H](O[C@@H]2O[C@H](C)[C@@H](O)[C@H](N)[C@@H]2O)C[C@@H]2O[C@](O)(C[C@@H](O)C[C@H]3O[C@@H]3/C=C/C(=O)O1)C[C@H](O)[C@H]2C(=O)O` [Pimaricin], the inhibition of growth at 1 µg/mL in data set [1] (setting [4]) amounted to 10.4%; in data set [1] (setting [5]) it was 13.7%.

Turning to `CN(C)c1cc(NC(=O)CNC(C)(C)C)c(O)c2c1C[C@H]1C[C@H]3[C@H](N(C)C)C(O)=C(C(N)=O)C(=O)[C@@]3(O)C(O)=C1C2=O` [Tigecycline], the inhibition of growth at 1 µg/mL in data set [1] (setting [4]) is 10%; in data set [1] (setting [5]), 5.97%.

For `COc1ccc(C[C@H](N)C(=O)N[C@H]2[C@@H](O)[C@H](n3cnc4c(N(C)C)ncnc43)O[C@@H]2CO)cc1` [Puromycin], the inhibition of growth at 1 µg/mL in data set [1] (setting [4]) amounted to 12%; in data set [1] (setting [5]), 10.7%.

For `OC[C@H]1O[C@@H](n2cnc3c2NC=NC[C@H]3O)C[C@@H]1O` [Pentostatin], the inhibition of growth at 1 µg/mL in data set [1] (setting [4]) was 12.7%; in data set [1] (setting [5]) it was 15.8%.

In the case of `C=C[C@]1(C)C[C@@H](OC(=O)CSC(C)(C)CNC(=O)[C@H](N)C(C)C)[C@]2(C)[C@H](C)CC[C@]3(CCC(=O)[C@H]32)[C@@H](C)[C@@H]1O` [Valnemulin], the inhibition of growth at 1 µg/mL in data set [1] (setting [4]) came to 8.39%; in data set [1] (setting [5]) it was 8.96%.

The compound `CN1CCC2(c3cccc4c3NC3N(C)CCC43C34CCN(C)C3Nc3ccccc34)c3ccccc3NC12` (centres unmarked) [BIA-H1941] registered a T.vaginalis_%inb_Rep1 in data set [2] (replicate 1, parasite screen at 1 µg/mL) of 7.39%. Besides, the T.vaginalis_%inb_Rep2 in data set [2] (replicate 2, parasite screen at 1 µg/mL) was 6.28%. Besides, the NFF_Activity entry in data set [3] (NFF cells, screen at 5 µg/mL) is given as “A (active (A) compounds having >25% inhibitory activity)”.

The compound `C[C@H]1NC(=O)[C@@H]2CCCCN2C(=O)CN(C)C(=O)CNC(=O)[C@@H]2CCCCN2C(=O)[C@H](NC(=O)c2nc3ccccc3cc2O)[C@@H](C)NC(=O)[C@@H]2CCCCN2C(=O)CN(C)C(=O)CNC(=O)[C@@H]2CCCCN2C(=O)[C@@H]1NC(=O)c1nc2ccccc2cc1O` [Quinaldopeptin] returned a T.vaginalis_%inb_Rep1 in data set [2] (HTS replicate 1, parasite screen 1 µg/mL) of 92.82%. In data set [2] (HTS replicate 2, parasite screen 1 µg/mL), this compound displayed a T.vaginalis_%inb_Rep2 of 95.37%. For the same compound, the NFF_Activity entry in data set [3] (NFF fibroblasts, single concentration 5 µg/mL) is “I (otherwise these were reported as inactive (I))”.

As to `CN(C)[C@@H]1C(=O)C(C(N)=O)=C(O)[C@@]2(O)C(=O)C3=C(O)c4c(O)cccc4C[C@H]3C[C@@H]12.Cl` [BIA-S1534], in data set [2] (setting [6]), the T.vaginalis_%inb_Rep1 was determined as 5.02%. This compound also had a T.vaginalis_%inb_Rep2 in data set [2] (setting [7]) of 3.66%. In addition, the NFF_Activity entry in data set [3] (setting [8]) was “I (otherwise these were reported as inactive (I))”.

Compound `CN[C@@H]1C[C@H]2O[C@@](C)([C@@H]1OC)n1c3ccccc3c3c4c(c5c6ccccc6n2c5c31)C(=O)NC4` [BIA-S1086] came in with a T.vaginalis_%inb_Rep1 in data set [2] (setting [6]) of 72.52%. In data set [2] (setting [7]), the T.vaginalis_%inb_Rep2 worked out at 83.24%. Further, in data set [3] (setting [8]), the NFF_Activity result is “A (active (A) compounds having >25% inhibitory activity)”.

`CSC[S@@+]([O-])CC(CO)NC(=O)/C=C/c1c(C)[nH]c(=O)[nH]c1=O` (some centres unmarked) [BIA-S1798] had a T.vaginalis_%inb_Rep1 in data set [2] (setting [6]) of 68.56%. Also, the T.vaginalis_%inb_Rep2 in data set [2] (setting [7]) came out at 88.33%. Also, the NFF_Activity result in data set [3] (setting [8]) is on record as “A (active (A) compounds having >25% inhibitory activity)”.

In data set [2] (HTS single concentration, parasite screen 1 µg/mL, replicate 1), `CC(/C=C/[C@@]1(C)[C@H](C)CCC(=O)[C@@H]1C)=C\Cc1c(O)c(Cl)c(C)c(C=O)c1O` [BIA-A1115] displayed a T.vaginalis_%inb_Rep1 of 16.42%. Besides, the T.vaginalis_%inb_Rep2 in data set [2] (HTS single concentration, parasite screen 1 µg/mL, replicate 2) is listed as 18.08%. Besides, the NFF_Activity result in data set [3] (NFF_NS1 screen 5 µg/mL, single concentration) is “I (otherwise these were reported as inactive (I))”.

In turn, `Cc1cc2nc3c(=O)[nH]c(=O)nc-3n(C[C@H](O)[C@H](O)[C@H](O)CO)c2cc1N(C)C` [BIA-R1535] yielded a T.vaginalis_%inb_Rep1 in data set [2] (setting [6]) of 11.33%. The compound also displayed a T.vaginalis_%inb_Rep2 in data set [2] (setting [7]) of 14.32%. In addition, the NFF_Activity entry in data set [3] (setting [8]) is “I (otherwise these were reported as inactive (I))”.

On to `C/C=C/[C@@H]1C=C[C@@H]2C[C@H](C)CC[C@H]2[C@]1(C)/C(O)=C1/C(=O)[C@H](CO)N(C)C1=O` [Equisetin], for which the T.vaginalis_%inb_Rep1 in data set [2] (HTS, parasite screen at 1 µg/mL, replicate 1) was found to be 12.17%. The same compound yielded a T.vaginalis_Absorbance_Rep1 in data set [2] (HTS, parasite screen at 1 µg/mL, replicate 1, raw absorbance) of 0.942. The T.vaginalis_%inb_Rep2 in data set [2] (HTS, parasite screen at 1 µg/mL, replicate 2) came out at 15.65%. This compound also returned a T.vaginalis_Absorbance_Rep2 in data set [2] (HTS, parasite screen at 1 µg/mL, replicate 2, raw absorbance) of 0.879. For the same compound, in data set [3] (NFF_NS1 screen at 5 µg/mL), the NFF_Activity result was “I (otherwise these were reported as inactive (I))”.
